Experimental data from US20150343007A1, “EDIBLE COMPOSITION COMPRISING AN EXTRACT OF INULA RACEMOSA AND NARINGIN” (CONOPCO, INC. D/B/A UNILEVER, priority 2012, published 2015).

target: T1, human recombinant Dipeptidyl peptidase-IV (DPP-IV) enzyme (Homo sapiens, UniProt P27487); experiment: Invitro DPP-4 Enzyme Assay (Gly-Pro p-NA substrate, absorbance at 405 nm); type: biochemical; details: 4 ng DPP-IV per well, 200 μl/well TRIS-HCl pH 8, 37° C., 1 hr; sample amounts (μg/well) per Table 1; Control 3 = 100% activity
T1 construct: purchased PROSPEC ISRAEL ENZ 375
T1 sequence (P27487 whole entry): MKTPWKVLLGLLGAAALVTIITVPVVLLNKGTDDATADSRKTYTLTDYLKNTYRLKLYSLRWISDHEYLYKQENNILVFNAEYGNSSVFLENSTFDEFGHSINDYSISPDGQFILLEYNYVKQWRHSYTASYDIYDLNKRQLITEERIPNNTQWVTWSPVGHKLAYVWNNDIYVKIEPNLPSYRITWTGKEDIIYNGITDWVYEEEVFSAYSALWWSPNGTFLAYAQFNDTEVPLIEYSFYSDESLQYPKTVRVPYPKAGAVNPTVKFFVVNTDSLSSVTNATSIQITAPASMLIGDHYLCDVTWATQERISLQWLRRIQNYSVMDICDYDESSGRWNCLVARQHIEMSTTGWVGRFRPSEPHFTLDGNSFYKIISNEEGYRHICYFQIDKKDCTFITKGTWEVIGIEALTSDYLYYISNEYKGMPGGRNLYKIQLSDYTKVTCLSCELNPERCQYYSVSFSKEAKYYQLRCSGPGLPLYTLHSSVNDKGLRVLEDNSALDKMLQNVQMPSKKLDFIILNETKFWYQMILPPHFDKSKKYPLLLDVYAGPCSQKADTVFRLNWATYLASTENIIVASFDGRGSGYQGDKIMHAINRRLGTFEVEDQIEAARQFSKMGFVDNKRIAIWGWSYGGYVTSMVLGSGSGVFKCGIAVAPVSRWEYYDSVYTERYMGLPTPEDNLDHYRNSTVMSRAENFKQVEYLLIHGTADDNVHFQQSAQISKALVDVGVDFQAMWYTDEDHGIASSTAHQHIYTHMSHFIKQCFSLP
Procedure: A 96 well plate (NEST Biotechnology Co. Ltd, Cat No 701001) was taken. In each well of 96 well plate extract of Inula racemosa (as prepared above), Naringin (SIGMA, Cat. No: N1376) and the combination of extract of Inula racemosa and naringin were put in varied concentration as per Table 1. In each well, 4 ng of human recombinant Dipeptidyl peptidase-IV (DPP-IV) enzyme (PROSPEC ISRAEL, Cat. No. ENZ 375) was also added. After that, the final volume was made up to 200 μl/well using TRIS-HCl buffer of pH-8. The TRIS-HCl buffer was prepared by adding 2.42 g of TRIS (Tris hydroxyl methyl amino methane; Supplier: Sisco Research Laboratory ltd, Cat No 2044122) base, 0.372 g of EDTA (SIGMA, Cat No E6758) and 5.644 g of NaCl in 900 mL of autoclaved milli-Q water (Millipore® India) and stirred it till it get dissolved (˜30 minutes). After that the pH of the solution was adjusted to 8.0 using HCl acid and then the volume of the solution was made up to 1000 mL with autoclaved milli-Q water.
The enzyme and combinations of extract of Inula racemosa and naringin were mixed for 1 min using microplate reader (BIO-RAD LAB INDIA, Model No. 680) and incubated in an incubator (Thermo Scientific, Model 3111; conditions: at 37° C.) for 10 minutes. After that the enzymatic reaction was initiated by adding 10 μL/well of the 19 mM of substrate Glycine-Proline para nitroanilide (Gly-Pro p-NA) (this is equivalent to GLP-1). Gly-Pro-p NA is a universally accepted and commercially available substrate for the enzyme DPP-4, due to the lack of availability of commercially available chromogenic GLP-1. We have used Gly-Pro-p NA in the assay which is equivalent to GLP-1. […]
All the above reaction mixture was again incubated for 1 hr in the same incubator under the same condition. […] After this the absorbance was measured at a wavelength of 405 nm using microplate reader (BIO-RAD LAB INDIA, Model No. 680). […]
The % activities of the DPP-4 for the other samples were calculated using the following formula:
The % inhibitions by the samples were then calculated by subtracting the activity from 100.

% Inhibition [%]	Structure (SMILES)
18.11	C[C@@H]1OC(OC2C(O)[C@H](O)C(CO)O[C@H]2Oc2cc(O)c3c(c2)O[C@H](c2ccc(O)cc2)CC3=O)[C@H](O)C(O)C1O (single isomer, unassigned) [D, 4,5,7-Trihydroxyflavanone 7-rhamnoglucoside]
18.54	C[C@@H]1O[C@@H](O[C@H]2[C@H](Oc3cc(O)c4c(c3)O[C@H](c3ccc(O)cc3)CC4=O)O[C@H](CO)[C@@H](O)[C@@H]2O)[C@H](O)[C@H](O)[C@H]1O [B, 4,5,7-Trihydroxyflavanone 7-rhamnoglucoside]
18.43	C[C@@H]1O[C@@H](O[C@H]2[C@H](Oc3cc(O)c4c(c3)O[C@H](c3ccc(O)cc3)CC4=O)O[C@H](CO)[C@@H](O)[C@@H]2O)[C@H](O)[C@H](O)[C@H]1O [C, 4,5,7-Trihydroxyflavanone 7-rhamnoglucoside]
